Experimental data as given in US5232917A, “Methods, compositions, and compounds for allosteric modulation of the GABA receptor by members of the androstane and pregnane series” (priority 1991, dated 1993).
Read-outs that look alike come from different tables or passages of the source.

Experiments:
[1] = system: metrazol-induced seizures; assay: Time course of antimetrazol activity of prodrugs; assay type: in vivo, mice (CF1); conditions: Mus musculus, 60 mg/kg ip
[2] = system: metrazol induced convulsions; assay: Inhibition of metrazol induced convulsions (Table 2); assay type: in vivo, mice; conditions: Mus musculus; inhibition of metrazol induced convulsions; read-out: Anti-Metrazol ED50
Procedure: Experiments were also performed to determine the physiological relevance of these interactions by measuring the ability of the compound of and used in the invention to modulate TBPS-induced convulsions in Swiss-Webster mice. […] The time to onset of myoclonus (presence of forelimb clonic activity) induced by TBPS was determined by observing each mouse for a period of 45 minutes. Significant differences between the time to onset in control mice vs. steroid-treated mice were determined by Student's t-test. […] The number of animals with tonic and/or clonic convulsions was recorded. In the maximal electroshock test, 50 mA of current at 60 Hz was delivered through corneal electrodes for 200 msec to induce tonic seizure. […] The ED50 (the dose at which the half-maximal effect occurs) was determined for each screen.
Adult male CFI mice (20-30g) were used in these studies. […] Percent protection against metrazol-induced seizures was plotted against time after administration of the compound. […] Ten to twelve mice were used per dose of test drug. […] The number of animals with tonic and/or clonic convulsions was recorded. The ability of the steroid to abolish the tonic component was defined as the endpoint. Sedative potential was determined by a rotorod test where the number of mice staying on a rotating (6 rpm) rod for ≥1 min. in each of three trials was determined.

[3] = target: GABA receptor-chloride ionophore complex (GR complex); assay: [35S]TBPS binding modulation assay; conditions: for IC50: read-out: IC50, inhibition of [35S]-TBPS binding, +5 μM GABA, in the presence of 5 μM GABA; for Max. Inhib., maximal % of specifically bound [35S]-TBPS displaced: saturating concentrations of test compound
[4] = target: T1, progesterone receptor (Bos taurus, UniProt F1N712); assay: Inhibition of 3H-progesterone binding to bovine uteral progesterone receptors
T1 construct: from tissue; host or cells: bovine uterus cytosol
T1 sequence (F1N712 1-914): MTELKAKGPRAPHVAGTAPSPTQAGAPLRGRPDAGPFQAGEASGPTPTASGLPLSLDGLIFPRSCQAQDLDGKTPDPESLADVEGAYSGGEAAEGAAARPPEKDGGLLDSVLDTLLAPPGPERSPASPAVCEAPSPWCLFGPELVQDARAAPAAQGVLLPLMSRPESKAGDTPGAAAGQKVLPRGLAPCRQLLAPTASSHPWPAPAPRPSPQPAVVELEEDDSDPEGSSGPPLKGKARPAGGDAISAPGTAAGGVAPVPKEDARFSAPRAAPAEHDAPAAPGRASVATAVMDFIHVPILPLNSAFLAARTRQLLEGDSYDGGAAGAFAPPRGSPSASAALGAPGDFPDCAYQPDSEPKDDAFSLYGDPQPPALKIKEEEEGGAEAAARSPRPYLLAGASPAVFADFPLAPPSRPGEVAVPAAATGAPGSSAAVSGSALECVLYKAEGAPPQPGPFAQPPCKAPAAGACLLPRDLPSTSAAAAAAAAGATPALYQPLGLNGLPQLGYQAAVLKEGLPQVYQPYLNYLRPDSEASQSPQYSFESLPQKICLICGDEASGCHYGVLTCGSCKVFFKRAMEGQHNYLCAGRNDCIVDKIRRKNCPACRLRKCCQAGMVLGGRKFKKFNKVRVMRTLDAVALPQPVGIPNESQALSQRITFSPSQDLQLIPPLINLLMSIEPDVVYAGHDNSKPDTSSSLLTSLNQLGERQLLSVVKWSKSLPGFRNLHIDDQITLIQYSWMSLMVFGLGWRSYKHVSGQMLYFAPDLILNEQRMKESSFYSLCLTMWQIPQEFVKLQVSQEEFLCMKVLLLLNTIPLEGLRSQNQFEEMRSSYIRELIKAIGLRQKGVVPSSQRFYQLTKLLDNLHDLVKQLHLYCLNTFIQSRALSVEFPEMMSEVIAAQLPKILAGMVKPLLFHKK
Procedure: The hormonal activity of drugs described herein was further studied through testing their potential estrogenic, progestinic, mineralocorticoid and glucocorticoid activities. These activities were analyzed by monitoring the ability of the drugs to inhibit binding of the steroid hormones to their respective hormone receptors.
For the data presented in Table 9, bovine uteri cytosol was isolated as they were for Table 7 and used for following binding to progesterone receptors by following the inhibition of ^3 H-progesterone, the natural ligand.

[5] = system: GABA receptor complex (36Cl uptake, cerebral cortical synaptoneurosomes); assay: GABA-stimulated 36Cl uptake in rat cerebral cortical synaptoneurosomes; assay type: biochemical, rat (male Sprague-Dawley)
Procedure: In addition, the ability of the BZ clonazepam to modulate ^36 Cl uptake in the presence or absence of 5α-pregnandiol was evaluated.
The homogenate was diluted to a final volume of 40 mL with buffer and filtered through three layers of Nylon mesh (160 μm).
Aliquots of membrane preparation (200 μL) were preincubated at 30° C. for 10 min. The interaction was initiated by the simultaneous addition of drugs/steroids and 0.2 mL ^36 Cl (New England Nuclear Boston, Mass., 0.55 mCi/mmol, 0.8 μCi/ml) resulting in a total incubation volume of 0.4 mL. Steroids and test drugs were solubilized in dimethylsufoxide (DMSO) and added to the reaction mixture in 2 μL aliquots. An equal volume of vehicle was always included in the control reaction mixture. The mixture was gently mixed and ^36 Cl uptake terminated after 5 sec by the of 5 mL of ice cold buffer containing 100 μM picrotoxin (Sigma Chem Co.) followed immediately by rapid filtration through glass fiber filters (Whatman GF/C) under vacuum. The filters were washed twice with 5 mL of ice-cold buffer and the filter-bound radioactivity quantitated by liquid scintillation spectrophotometry. Specific uptake was calculated by subtracting the amount of ^36 Cl bound to the filters in the absence of synaptoneurosomes from that observed in their presence. Percent enhancement represents percent increase in uptake over that of basal ^36 Cl uptake. Statistical comparisons utilized the analysis of variance (ANOVA).

[6] = system: number of light/dark transitions (anxiety); assay: Light/dark transition test; assay type: in vivo, mice (male N.I.H. Swiss-Webster); conditions: 3α-OH-DHP 10, 20, 40 mg/kg; 5α-THDOC 20 mg/kg; diazepam 1.0, 5.0, 10, 20 mg/kg; 20 mg/kg
Text: (§1) The light/dark transition test (Crawley and Goodwin, 1980) is based on the observation that rodents naturally tend to explore novel environments, but open, brightly lit arenas are aversive to the rodents and inhibit exploratory behavior (Christmas and Maxwell, 1970; File, 1980). […] Similar to the light/dark transition test, the open-field test measures the antagonism between the tendency to explore a novel environment and the tendency to remain still in an aversive environment (brightly lit arena). […] The open-field test provides a simple, non-punished assessment of the potential anxiolytic properties of novel compounds. Finally, 3α-OH-DHP was tested for anxiolytic properties in a Vogel conflict paradigm. The ability of BZs to attenuate the suppression of behavior by punishment in conflict paradigms is well established (Gellar et al., 1962; Vogel et al., 1971).
(§2) Male N.I.H. Swiss-Webster mice (Harlan) weighing 15-20 g were used in all experiments. The mice were housed 4/cage in polyethylene cages with sawdust bedding. The colony room was environmentally controlled (22° C.) with a 12 hr. light/dark cycle (0600-1800 hrs.). The mice had free access to food and water. The experiments were run from 0700-1500 hrs. and groups were counterbalanced for time of day effects.
The method used was previously described by Crawley and Goodwin (1980). The apparatus included a large box (26×33×24 cm) connected to a small box (15×22×14 cm) through an opening (5×6 cm). The large box was brightly lit with a standard 100W light bulb, while the small box was kept dark. Following pretreatment with a test drug, mice were placed in the center of the large box and the number of transitions between the large and small boxes was counted for 10 min. […] During the antagonist studies, CGS-8216 was administered 30 min. prior to the test drug.
(§3) 2-Hydroxypropyl β-cyclodextrin Diazepam and chlordiazepoxide are available from Sigma, Co. (St. Louis, Mo.). CGS-8216 was obtained from Ciba-Geigy (Summit, N.J.). All drugs were dissolved in 20% β-cyclodextrin in water and sonicated overnight. All drugs were administered intraperitoneally in a volume of 100 μL/20 g. CGS-8216 was administered subcutaneously in a volume of 100 μL/20 g.
(§4) The vehicle control data were analyzed across test days using an 1-way analysis of variance (ANOVA). […] The dose-response curves were then analyzed using an 1-way ANOVA, followed by Dunnett's t-test for individual comparisons between doses and control. The open-field and habituated locomotor data were analyzed using ANOVA followed by Dunnett's t-test. […] All data is expressed as the mean±S.E.M.

[7] = system: open-field activity; assay: Open-field activity test; assay type: in vivo, mice (male N.I.H. Swiss-Webster)
Text: as §1, §2
As a secondary measure of anxiolytic effects, naive mice were placed in the center of a large, brightly lit plexiglass box (42×42×30.5 cm) and the total distance traveled was measured during a 10 min. test period. […] The Digiscan Activity Monitor (Omnitech Electronics, Columbus, Ohio) includes 16 photobeams that surround the box. The activity monitor is linked to a computer through a Digiscan Analyzer (Omnitech Electronics) and the data is analyzed using the Integrated Lab Animal Monitoring System (Omnitech Electronics). The mice were administered drugs as described for light/dark transitions.
as §3, §4

[8] = 1 hr, read-out: Antimetrazol activity, % of animals protected, 1 hr
[9] = 4 hr, read-out: Antimetrazol activity, % of animals protected, 4 hr

CC(=O)OCC(=O)[C@H]1CC[C@H]2[C@@H]3CC[C@H]4C[C@H](O)CC[C@]4(C)[C@H]3CC[C@]12C
responders at 60 mg/kg [1, 8]: 50%
responders at 60 mg/kg [1, 9]: 0%

CC(=O)OCC(=O)[C@H]1CC[C@H]2[C@@H]3CC[C@H]4C[C@H](OC(C)=O)CC[C@]4(C)[C@H]3CC[C@]12C
responders at 60 mg/kg [1, 8]: 0%
responders at 60 mg/kg [1, 9]: 0%

CC(=O)OCC(=O)[C@H]1CC[C@H]2[C@@H]3CC[C@H]4C[C@H](OC(=O)C(C)C)CC[C@]4(C)[C@H]3CC[C@]12C
responders at 60 mg/kg [1, 8]: 63%
responders at 60 mg/kg [1, 9]: 13%

CCO[C@H]1C[C@@]2(C)[C@@H](CC[C@@H]3[C@@H]2CC[C@]2(C)[C@@H](C(C)=O)CC[C@@H]32)C[C@@H]1O [2β-ETHOXY-3α-HYDROXY-5α-PREGNAN-20-ONE, 2β-Ethoxy-3α-hydroxy-5α-pregnan-20-one]
ED50 [2]: 6 mg/kg
IC50 [3]: 97 nM
Max. Inhib., maximal % of specifically bound [35S]-TBPS displaced [3]: 100%

CO[C@H]1C[C@@]2(C)[C@@H](CC[C@@H]3[C@@H]2CC[C@]2(C)[C@@H](C(C)=O)CC[C@@H]32)C[C@@H]1O [2β-METHOXY-3α-HYDROXY-5α-PREGNAN-20-ONE, 2β-Methoxy-3α-hydroxy-5α-pregnan-20-one]
ED50 [2]: 60 mg/kg
IC50 [3]: 66 nM
Max. Inhib., maximal % of specifically bound [35S]-TBPS displaced [3]: 100%

CC(=O)[C@H]1CC[C@H]2[C@@H]3CC[C@H]4C[C@](C)(O)CC[C@]4(C)[C@H]3CC[C@]12C [3α-HYDROXY-3β-METHYL-5α-PREGNAN-20-ONE, 3α-hydroxy-3β-methyl-5α-pregnan-20-one]
ED50 [2]: 9 mg/kg
inhibition at 10 µM ([4]; read-out: % of inhibition of 3H-progesterone binding, A, competitor 10^-5 M, 0.15 nM 3H-progesterone): 10%
inhibition at 1 µM ([4]; read-out: % of inhibition of 3H-progesterone binding, A, competitor 10^-6 M, 0.15 nM 3H-progesterone): 4%
inhibition at 10 µM ([4]; read-out: % of inhibition of 3H-progesterone binding, B, competitor 10^-5 M, 0.25 nM 3H-progesterone): 5%
inhibition at 1 µM ([4]; read-out: % of inhibition of 3H-progesterone binding, B, competitor 10^-6 M, 0.25 nM 3H-progesterone): 2%
IC50 [3]: 60 nM
Max. Inhib., maximal % of specifically bound [35S]-TBPS displaced [3]: 100%

CC(=O)[C@H]1CC[C@H]2[C@@H]3CCC4=C[C@H](O)CC[C@]4(C)[C@H]3CC[C@]12C [3α-HYDROXY-4-PREGNEN-20-ONE]
ED50 [2]: 20 mg/kg
IC50 [3]: 154 nM
Max. Inhib., maximal % of specifically bound [35S]-TBPS displaced [3]: 80%

CN1CCc2cc3c(cc2[C@H]1[C@@H]1OC(=O)c2c1ccc1c2OCO1)OCO3 [(+)bicuculline, reference compound]
block of the stimulatory effect of GABA on 36Cl uptake ([5]; (+)bicuculline 10 μM, GABA 25 μM): completely block
% enhancement of basal 36Cl uptake ([5]; GABA (25 μM) + (+)bicuculline (10 μM)): 3 ± 2%

CC(=O)O[C@@H]1CC[C@@]2(C)[C@@H](CC[C@@H]3[C@@H]2CC[C@]2(C)[C@@H](C(C)=O)CC[C@@H]32)C1 [CH3]
responders at 60 mg/kg [1, 8]: 25%

CC(=O)[C@H]1CC[C@H]2[C@@H]3CC[C@H]4C[C@@H](O)CC[C@]4(C)[C@H]3CC[C@]12C [Example 3β-OH-DHP, 3β-hydroxy-5α-pregnan-20-one, reference compound]
effect on number of light/dark transitions (words) [6]: did not produce an anxiolytic effect
total distance, open-field ([7]; 20 mg/kg, 10 min, vehicle 2004.6 ± 134.6): 1979.8 ± 174.5 cm
effect on open-field activity ([7]; steroids 20 mg/kg, diazepam 10 mg/kg): did not show any effect
IC50 [3]: > 100000 nM
Max. Inhib., maximal % of specifically bound [35S]-TBPS displaced [3]: 33%
IC50, inhibition of [35S]-TBPS binding, No GABA ([3]; washed synaptoneurosomes, no GABA added): Inactive

NCCCC(=O)O [GABA, gamma-aminobutyric acid]
% enhancement of basal 36Cl uptake ([5]; GABA (25 μM) alone): 133 ± 6%
shift of [35S]TBPS dose-response curve by (+)bicuculline ([3]; 0.5-3.0 μM bicuculline, FIGS. 1A, 1B): classical parallel shift
